From ChEMBL document CHEMBL2074247, “Induction of P-glycoprotein expression by HIV protease inhibitors in cell culture” (AIDS, 2000)

These molecules were tested against ATP-dependent translocase ABCB1 (Homo sapiens, UniProt P08183) (assay: TP_TRANSPORTER: Western blot, LS-180V).
Format: functional, cell-based

ATP-dependent translocase ABCB1, sequence (P08183 whole entry): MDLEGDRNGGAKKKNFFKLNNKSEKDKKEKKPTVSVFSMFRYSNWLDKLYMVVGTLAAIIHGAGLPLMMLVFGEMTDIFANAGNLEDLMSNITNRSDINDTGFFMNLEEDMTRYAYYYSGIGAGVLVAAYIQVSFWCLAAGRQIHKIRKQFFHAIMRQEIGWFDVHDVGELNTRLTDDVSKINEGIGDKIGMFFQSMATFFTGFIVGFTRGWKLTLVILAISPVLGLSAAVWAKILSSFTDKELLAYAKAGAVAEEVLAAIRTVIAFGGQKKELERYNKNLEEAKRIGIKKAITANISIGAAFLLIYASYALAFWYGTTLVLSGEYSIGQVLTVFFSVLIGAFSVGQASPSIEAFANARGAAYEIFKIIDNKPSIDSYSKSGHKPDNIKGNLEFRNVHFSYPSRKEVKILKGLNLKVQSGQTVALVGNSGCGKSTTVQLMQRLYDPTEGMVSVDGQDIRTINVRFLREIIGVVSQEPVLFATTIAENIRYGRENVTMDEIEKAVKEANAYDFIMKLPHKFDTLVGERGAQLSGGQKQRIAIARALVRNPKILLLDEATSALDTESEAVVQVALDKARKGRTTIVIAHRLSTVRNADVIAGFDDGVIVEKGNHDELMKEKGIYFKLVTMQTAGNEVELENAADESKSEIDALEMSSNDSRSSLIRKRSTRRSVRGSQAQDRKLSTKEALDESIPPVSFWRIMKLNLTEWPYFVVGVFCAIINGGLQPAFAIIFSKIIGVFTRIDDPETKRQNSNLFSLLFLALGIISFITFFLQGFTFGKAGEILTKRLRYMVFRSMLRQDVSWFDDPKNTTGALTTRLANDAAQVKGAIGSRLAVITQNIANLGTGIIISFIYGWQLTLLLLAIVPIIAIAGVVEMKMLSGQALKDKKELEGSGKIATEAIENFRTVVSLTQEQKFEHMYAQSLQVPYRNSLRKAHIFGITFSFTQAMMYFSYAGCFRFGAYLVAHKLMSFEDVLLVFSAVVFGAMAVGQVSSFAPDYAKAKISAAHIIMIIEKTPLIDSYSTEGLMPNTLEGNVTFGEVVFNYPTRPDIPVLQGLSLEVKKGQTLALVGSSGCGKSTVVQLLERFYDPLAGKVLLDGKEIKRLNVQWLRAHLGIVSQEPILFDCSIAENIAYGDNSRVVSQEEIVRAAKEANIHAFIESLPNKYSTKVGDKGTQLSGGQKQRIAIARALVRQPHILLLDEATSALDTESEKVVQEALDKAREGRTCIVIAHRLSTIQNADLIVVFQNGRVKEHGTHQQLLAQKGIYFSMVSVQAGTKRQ

| Compound | Activity |
| --- | --- |
| CC(C)(C)NC(=O)[C@@H]1C[C@@H]2CCCC[C@@H]2CN1C[C@@H](O)[C@H](Cc1ccccc1)NC(=O)[C@H](CC(N)=O)NC(=O)c1ccc2ccccc2n1 [SAQUINAVIR] | inducer [+] |
| COc1ccc(CCN(C)CCCC(C#N)(c2ccc(OC)c(OC)c2)C(C)C)cc1OC (stereo not given) [VERAPAMIL] | inducer [+] |
| CC(C)(C)NC(=O)[C@@H]1CN(Cc2cccnc2)CCN1C[C@@H](O)C[C@@H](Cc1ccccc1)C(=O)N[C@H]1c2ccccc2C[C@H]1O.O [INDINAVIR] | inducer [+] |
| CC(C)CN(C[C@@H](O)[C@H](Cc1ccccc1)NC(=O)O[C@H]1CCOC1)S(=O)(=O)c1ccc(N)cc1 [AMPRENAVIR] | inducer [+] |
| Cc1c(O)cccc1C(=O)N[C@@H](CSc1ccccc1)[C@H](O)CN1C[C@H]2CCCC[C@H]2C[C@H]1C(=O)NC(C)(C)C [NELFINAVIR] | inducer [+] |
